Test results from patent US20100092443A1, “NOVEL COMBINATIONS OF NITROGENATED HETEROCYCLIC ANTIBACTERIAL COMPOUNDS WITH OTHER ANTIBACTERIAL COMPOUNDS AND THE USE OF SAME AS DRUGS” (priority 2008, published 2010).
Counter-ions that a name gives are not always drawn.

Experiments:
Type in all cases: cell-based
K. pneumoniae = experiment: MIC, dilutions in liquid medium, alone and combined with NXL105
Method: (§1) In vitro activity, method of dilutions in liquid medium:
(§2) A series of test 96-well microtiter plates are prepared in which the same quantity of sterile nutritive medium is distributed. […] After 24 h of incubation in a 37° C. oven, growth inhibition is evaluated by transillumination, which makes it possible to determine the minimum inhibitory concentrations (MICS) expressed in μg/ml.

E. cloacae = experiment: as above
Method: as §1, §2

Pseudomonas aeruginosa = experiment: as above
Method: as §1
A series of test 96-well microtiter plates are prepared in which the same quantity of sterile nutritive medium is distributed. Increasing quantities of the compound to be studied, namely the antibacterial compound alone and the inventive combination with the compound of formula (I) of example 1, are distributed in each plate in the respective proportions 2:1 and 4:1, and then each plate is inoculated with a bacterial strain of Pseudomonas aeruginosa. After 24 h of incubation in a 37° C. oven, growth inhibition is evaluated by transillumination, which makes it possible to determine the minimum inhibitory concentrations (MICS) expressed in μg/ml.

C. freundii = experiment: as above
E. aerogenes = experiment: as above; conditions: E. aerogenes EAR2; Case-R + FEP-R
E. coli = experiment: microbe, parasite or virus in culture
Method: as §1, §2

K. oxytoca = experiment: MIC, dilutions in liquid medium, alone and combined with NXL105

`Cn1ncc2c1[C@@H](CN)N1C[C@H]2N(OS(=O)(=O)O)C1=O` (relative stereo) [NXL105, Sodium and Trifluoroacetate Salts of trans 8-(aminomethyl)-4,8-dihydro-1-methyl-5-(sulphooxy)-4,7-methano-7H-pyrazolo[3,4-e][1,3]diazepin-6(5H)-one] was tested, and the MIC (K. pneumoniae; K. pneumoniae 26, SHV-5) was 32 µg/mL, the MIC (K. pneumoniae; K. pneumoniae 60, SHV-2 + TEM-2 + PER) was 32 µg/mL and the MIC (K. pneumoniae; K. pneumoniae 157, SHV-5 + TEM-26) was >32 µg/mL. For the same compound, the MIC (K. pneumoniae; K. pneumoniae 181, SHV-5 + TEM-10) was >32 µg/mL, the MIC (K. pneumoniae; K. pneumoniae 236, SHV-5 + TEM-10) was >32 µg/mL and the MIC (K. pneumoniae; K. pneumoniae 238, SHV-2 + TEM-12 + CTX-M-2) was >32 µg/mL. The MIC (K. pneumoniae; K. pneumoniae 243, SHV-5 + TEM-63) was >32 µg/mL, the MIC (K. pneumoniae; K. pneumoniae 253, SHV-2 + TEM-12 + CTX-M-2) was >32 µg/mL and the MIC (K. pneumoniae; K. pneumoniae 427, SHV-1 + TEM-1B + CTX-M-3) was >32 µg/mL. For the same compound, the MIC (K. pneumoniae; K. pneumoniae 441, SHV-1 + TEM-2 + PER) was >32 µg/mL, the MIC (K. pneumoniae; K. pneumoniae 444, SHV-5 + TEM-2 + PER) was >32 µg/mL and the MIC (K. pneumoniae; K. pneumoniae 449, SHV-1 + TEM-2 + PER) was 32 µg/mL. The MIC (K. pneumoniae; K. pneumoniae 465, TEM-1B + CTX-M-2) was >32 µg/mL, the MIC (K. pneumoniae; K. pneumoniae 1734, FOX-3 + TEM-1) was >32 µg/mL and the MIC (K. pneumoniae; K. pneumoniae 9701, CMY-4 + TEM-1) was >32 µg/mL. The MIC (K. pneumoniae; K. pneumoniae ATCC 700603, SHV-18) was >32 µg/mL, the MIC (K. pneumoniae; K. pneumoniae CL5761, KPC-3) was >32 µg/mL and the MIC (K. pneumoniae; K. pneumoniae CL5762, KPC-3) was >32 µg/mL. The MIC (K. pneumoniae; K. pneumoniae CL5763, KPC-3) was >32 µg/mL, the MIC (K. pneumoniae; K. pneumoniae KOL, MOX-2 + SHV-5 + TEM-1) was >32 µg/mL and the MIC (K. pneumoniae; K. pneumoniae KP04, CTX-M-14) was >32 µg/mL. For the same compound, the MIC (K. pneumoniae; K. pneumoniae Patient 1BHR, VIM-4 + CTX-M-15 = CMY-4 + TEM-1) was 16 µg/mL, the MIC (K. pneumoniae; K. pneumoniae Patient F, VIM-1 + SHV-5) was >32 µg/mL and the MIC (K. pneumoniae; K. pneumoniae SLK54, ACC-1 + TEM-1) was >32 µg/mL. The MIC (K. pneumoniae; K. pneumoniae TN58467, DHA-1 + SHV-2a + TEM-1) was >32 µg/mL, the MIC (K. pneumoniae; K. pneumoniae Tunisie clone K1, CTX-M-16 + OXA-1) was >32 µg/mL and the MIC (K. pneumoniae; K. pneumoniae Tunisie clone K4, CTX-M-15 + TEM-1 + OXA-1) was 16 µg/mL. The MIC (K. pneumoniae; K. pneumoniae VA8, KPC-3) was >32 µg/mL, the MIC (K. pneumoniae; K. pneumoniae VAKP, KPC-2) was >32 µg/mL and the MIC (K. pneumoniae; K. pneumoniae YC, KPC-2) was >32 µg/mL. The MIC (E. cloacae; E. cloacae 7506, KPC-2 + TEM-1 + KLUC-2) was 32 µg/mL, the MIC (E. cloacae; E. cloacae (no alias), AmpC) was 32 µg/mL and the MIC (E. cloacae; E. cloacae, AmpC) was >32 µg/mL. It also gave an MIC (Pseudomonas aeruginosa; P. aeruginosa 391HG2) of 1.000 µg/mL, an MIC (Pseudomonas aeruginosa; P. aeruginosa 391HG21) of 0.500 µg/mL and an MIC (Pseudomonas aeruginosa; P. aeruginosa 391HG38) of 32.000 µg/mL. It also gave an MIC (Pseudomonas aeruginosa; P. aeruginosa 391HG39) of 4.000 µg/mL, an MIC (Pseudomonas aeruginosa; P. aeruginosa 391HG58) of 1.000 µg/mL and an MIC (Pseudomonas aeruginosa; P. aeruginosa 391HG118) of 0.125 µg/mL. For the same compound, the MIC (Pseudomonas aeruginosa; P. aeruginosa 391HG123) was >32 µg/mL, the MIC (Pseudomonas aeruginosa; P. aeruginosa 391HG158) was 32.000 µg/mL and the MIC (Pseudomonas aeruginosa; P. aeruginosa 391HG271) was 32.000 µg/mL. The MIC (Pseudomonas aeruginosa; P. aeruginosa 391HG329) was 2.000 µg/mL, the MIC (Pseudomonas aeruginosa; P. aeruginosa 391K767) was 1.000 µg/mL and the MIC (Pseudomonas aeruginosa; P. aeruginosa 391K1455) was 2.000 µg/mL. The MIC (Pseudomonas aeruginosa; P. aeruginosa 391K1523) was 2.000 µg/mL, the MIC (Pseudomonas aeruginosa; P. aeruginosa 391K1525) was 4.000 µg/mL and the MIC (Pseudomonas aeruginosa; P. aeruginosa 391K1536) was 2.000 µg/mL. The MIC (Pseudomonas aeruginosa; P. aeruginosa 391K2376) was 2.000 µg/mL, the MIC (Pseudomonas aeruginosa; P. aeruginosa 391K2379) was 4.000 µg/mL and the MIC (Pseudomonas aeruginosa; P. aeruginosa 391K2415) was 2.000 µg/mL. For the same compound, the MIC (Pseudomonas aeruginosa; P. aeruginosa 391KB9) was 0.250 µg/mL, the MIC (Pseudomonas aeruginosa; P. aeruginosa 391KB14) was 1.000 µg/mL and the MIC (Pseudomonas aeruginosa; P. aeruginosa 391KB21) was 2.000 µg/mL. It also gave an MIC (Pseudomonas aeruginosa; P. aeruginosa 391KB33) of 0.500 µg/mL, an MIC (Pseudomonas aeruginosa; P. aeruginosa 391KB38) of 1.000 µg/mL and an MIC (Pseudomonas aeruginosa; P. aeruginosa 391KB62) of 4.000 µg/mL. It also gave an MIC (Pseudomonas aeruginosa; P. aeruginosa 391KB68) of 0.500 µg/mL, an MIC (Pseudomonas aeruginosa; P. aeruginosa 391KB90) of 8.000 µg/mL and an MIC (Pseudomonas aeruginosa; P. aeruginosa 391KB91) of 0.500 µg/mL. It also gave an MIC (Pseudomonas aeruginosa; P. aeruginosa 391KB99) of 0.500 µg/mL, an MIC (Pseudomonas aeruginosa; P. aeruginosa 391KB103) of 0.500 µg/mL and an MIC (Pseudomonas aeruginosa; P. aeruginosa 391KB105) of 1.000 µg/mL. It also gave an MIC (Pseudomonas aeruginosa; P. aeruginosa 391KB106) of 2.000 µg/mL, an MIC (Pseudomonas aeruginosa; P. aeruginosa 391KB107) of 1.000 µg/mL and an MIC (Pseudomonas aeruginosa; P. aeruginosa 391KB114) of 4.000 µg/mL. The MIC (Pseudomonas aeruginosa; P. aeruginosa 391KB127) was 0.500 µg/mL, the MIC (Pseudomonas aeruginosa; P. aeruginosa 391KB135) was 1.000 µg/mL and the MIC (Pseudomonas aeruginosa; P. aeruginosa 391KB136) was 0.500 µg/mL. For the same compound, the MIC (Pseudomonas aeruginosa; P. aeruginosa 391KB137) was 0.500 µg/mL, the MIC (Pseudomonas aeruginosa; P. aeruginosa 391KB138) was 0.500 µg/mL and the MIC (Pseudomonas aeruginosa; P. aeruginosa 391KB139) was 2.000 µg/mL. For the same compound, the MIC (Pseudomonas aeruginosa; P. aeruginosa 391KB140) was 2.000 µg/mL, the MIC (Pseudomonas aeruginosa; P. aeruginosa 391KB141) was 4.000 µg/mL and the MIC (Pseudomonas aeruginosa; P. aeruginosa 391KB142) was 1.000 µg/mL. The MIC (Pseudomonas aeruginosa; P. aeruginosa 391KB143) was 0.500 µg/mL, the MIC (Pseudomonas aeruginosa; P. aeruginosa 391KB144) was 16.000 µg/mL and the MIC (Pseudomonas aeruginosa; P. aeruginosa 391QBR2) was >32 µg/mL. The MIC (Pseudomonas aeruginosa; P. aeruginosa 391QBR3) was 2.000 µg/mL, the MIC (Pseudomonas aeruginosa; P. aeruginosa 391QBR4) was 2.000 µg/mL and the MIC (Pseudomonas aeruginosa; P. aeruginosa 391QBR5) was 1.000 µg/mL. It also gave an MIC (Pseudomonas aeruginosa; P. aeruginosa 391QBR7) of 2.000 µg/mL, an MIC (Pseudomonas aeruginosa; P. aeruginosa 391QBR8) of 2.000 µg/mL and an MIC (Pseudomonas aeruginosa; P. aeruginosa 391QBR9) of 2.000 µg/mL. The MIC (Pseudomonas aeruginosa; P. aeruginosa 391QBR10) was 4.000 µg/mL, the MIC (Pseudomonas aeruginosa; P. aeruginosa ATCC 27853) was 0.060 µg/mL and the MIC (Pseudomonas aeruginosa; P. aeruginosa C3719) was >32 µg/mL. For the same compound, the MIC (Pseudomonas aeruginosa; P. aeruginosa PA2192) was 0.125 µg/mL, the MIC (C. freundii; C. freundii (no alias), AmpC + TEM-1) was 16 µg/mL and the MIC (C. freundii; C. freundii (no alias, table row r121), AmpC) was 16 µg/mL. The MIC (C. freundii; C. freundii (no alias, table row r122), AmpC) was 32 µg/mL, the MIC (C. freundii; C. freundii (no alias, table row r123), AmpC) was >32 µg/mL and the MIC (C. freundii; C. freundii (no alias, table row r125), AmpC) was 32 µg/mL. The MIC (E. aerogenes) was >32 µg/mL, the MIC (E. coli; E. coli 2138, KPC-2 + TEM-1) was >32 µg/mL and the MIC (E. coli; E. coli (no alias), CTX-M-15 + TEM-1 + OXA-1) was >32 µg/mL. The MIC (E. coli; E. coli (no alias), Cephalosporinase) was >32 µg/mL, the MIC (E. coli; E. coli (no alias), SHV-4) was >32 µg/mL and the MIC (E. coli; E. coli (no alias), TEM-3) was >32 µg/mL. The MIC (E. coli; E. coli IND, VEB-1 + CMY-2) was 16 µg/mL, the MIC (E. coli; E. coli TN06, CTX-M-2 + TEM-1) was 32 µg/mL and the MIC (E. coli; E. coli TN13, CTX-M-14 + CMY-2 + TEM-1) was 32 µg/mL. For the same compound, the MIC (E. coli; E. coli Tunisie clone E4, CTX-M-16 + TEM-1) was >32 µg/mL, the MIC (K. oxytoca; K. oxytoca 1431, TEM-129) was 32 µg/mL and the MIC (K. oxytoca; K. oxytoca 16944, OXY-2, TEM-1) was >32 µg/mL.
